Values belong to the compound of their own block, whether it stands above or below them.
Key:
[1] = tested on: B16 melanoma cells; assay: Melanin formation prevention test (melanin production and cell proliferation); assay type: cell-based; settings: for Degree of cell proliferation: relative to ethanol control
Method: B16 melanoma cells were suspended (10,000 cells/ml) in DMEM (Dulbecco's modified eagle medium) containing 10% FBS (fetal bovine serum) and 8 ml of the suspension was added to a cell culture bottle with a 25 cm^2 bottom surface area, and cultured at 37° C. in the presence of 5% carbon dioxide for 3 days. After 3 days of culture, the old medium was exchanged with 8 ml of fresh medium. 40 micro-liters of a sample solution, in which compounds of the present invention had been dissolved in ethanol to give a final concentration shown in the table, were further added thereto. As the control, ethanol only was added. After the medium change, the cells were further cultured for 3 days under the same conditions. After culture was finished, the medium was removed, and the cells were recovered by treatment with trypsin (DIFCO) and suspended in 4 ml of phosphate buffered saline (PBS) and a predetermined amount ( 1/40) of this suspension was used to measure the number of cells in a Coultar counter (Sysmex Co.) to determine the degree of cell proliferation.
The degree of cell proliferation was determined according to the following equations:
Degree of cell proliferation (%)=(number of cells in sample)/(number of cells in control)×100
The remainder of the cell suspension was centrifuged and then washed with 5% trichloroacetic acid, then with ethanol/ethyl ether (3:1 by volume), and with ethyl ether and the cells were dried, and 2N—NaOH was added thereto to dissolve (melanin in) the cells under heating at 70° C. and measured for its optical density (OD) at 420 nm. Using a calibration curve of synthetic melanin, the amount of melanin/million cells was determined from the OD and the degree of inhibition of melanin production was determined according to the following equation:
Degree of inhibition of melanin (%)=(amount of melanin in control−amount of melanin in sample)/(amount of melanin in control)×100

[2] = target: T1, tyrosinase in B16 melanoma cells (Mus musculus, UniProt P11344); assay: Test of tyrosinase inhibition in B16 melanoma cells (crude enzyme solution); assay type: biochemical; settings: L-DOPA substrate, 37° C. 3 hours; for Degree of inhibition of tyrosinase in B16 melanoma cells: 25 ppm
T1 construct: the resulting supernatant was used as a crude enzyme solution; endogenous in cells; host or cells: B16 melanoma cells (Triton X100 lysate, sonicated, 11,000 G supernatant)
T1 sequence (P11344 19-533): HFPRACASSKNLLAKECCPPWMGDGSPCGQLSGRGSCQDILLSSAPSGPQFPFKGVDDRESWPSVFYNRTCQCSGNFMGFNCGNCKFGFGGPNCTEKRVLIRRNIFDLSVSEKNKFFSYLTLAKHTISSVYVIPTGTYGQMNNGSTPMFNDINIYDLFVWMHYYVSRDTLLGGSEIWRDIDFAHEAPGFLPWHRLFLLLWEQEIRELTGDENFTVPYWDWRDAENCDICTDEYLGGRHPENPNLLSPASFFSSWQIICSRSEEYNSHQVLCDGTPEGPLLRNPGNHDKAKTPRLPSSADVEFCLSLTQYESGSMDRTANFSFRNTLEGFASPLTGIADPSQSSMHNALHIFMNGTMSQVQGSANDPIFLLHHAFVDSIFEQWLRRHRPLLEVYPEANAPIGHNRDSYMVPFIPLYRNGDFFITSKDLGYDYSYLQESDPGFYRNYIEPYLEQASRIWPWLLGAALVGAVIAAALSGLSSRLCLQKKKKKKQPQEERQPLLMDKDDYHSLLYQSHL
Method: B16 melanoma cells were cultured for 3 days in DMEM containing 10% FBS at 37° C. in the presence of 5% carbon dioxide. The cells proliferated after culture were recovered by treatment with trypsin, then suspended in PBS containing 0.1% Triton X100 at a density of ten million cells/ml and disrupted by sonication. The product obtained was centrifuged at 11,000 G for 20 minutes, and the resulting supernatant was used as a crude enzyme solution. Added thereto was 0.2 ml of crude enzyme solution. The mixture was preliminarily kept at 37° C. for 5 minutes, and 0.2 ml L-DOPA solution (0.5 mg/ml) was added as the substrate, and the mixture was kept at 37° C. for 3 hours.

[3] = tested on: B16 melanoma cells; assay: Combination test with existing tyrosinase inhibitors (method of Test Example 1); assay type: cell-based; settings: alone
Method: B16 melanoma cells were suspended (10,000 cells/ml) in DMEM (Dulbecco's modified eagle medium) containing 10% FBS (fetal bovine serum) and 8 ml of the suspension was added to a cell culture bottle with a 25 cm^2 bottom surface area, and cultured at 37° C. in the presence of 5% carbon dioxide for 3 days. After 3 days of culture, the old medium was exchanged with 8 ml of fresh medium. 40 micro-liters of a sample solution, in which compounds of the present invention had been dissolved in ethanol to give a final concentration shown in the table, were further added thereto. As the control, ethanol only was added. After the medium change, the cells were further cultured for 3 days under the same conditions. […] Degree of cell proliferation (%)=(number of cells in sample)/(number of cells in control)×100 […] Using a calibration curve of synthetic melanin, the amount of melanin/million cells was determined from the OD and the degree of inhibition of melanin production was determined according to the following equation: Degree of inhibition of melanin (%)=(amount of melanin in control−amount of melanin in sample)/(amount of melanin in control)×100 […]

[4] = tested on: mushroom-derived tyrosinase; assay: Mushroom tyrosinase inhibition test; assay type: biochemical; settings: L-tyrosine substrate, 37° C. 30 minutes
Method: After reaction, the absorbance (OD) at a wavelength of 490 nm was measured and the degree of inhibition of tyrosinase reaction was determined according to the following equation. […] Sample: The buffer, the enzyme solution, the substrate solution and the sample solution Sample-free: The buffer, the enzyme solution and the substrate solution Blank: The buffer and the enzyme solution

[5] = tested on: Human-derived normal skin fibroblasts (NB1RGB); assay: Test of cell activating activity (fibroblast proliferation); assay type: cell-based; settings: relative to ethanol control (100)
Method: Human-derived normal skin fibroblasts (NB1RGB: Institute of Physical and Chemical Research) were suspended into DMEM containing 10% FBS to give a concentration of 20,000 cells/ml, and 5 ml each of this cellular suspension was introduced into each of 25 cm^2 bottles, cultured at 37° C. in the presence of 5% carbon dioxide for 24 hours. To each bottle, was added 10 micro-liter (0.2%) of the ethanol solution containing the compound to give the final concentration shown in Table 8. The cells were cultured for an additional 3 days. After 3 days the old medium was discarded and 5 ml fresh medium was added, and the sample was further added thereto. After this exchange of the medium, the cells were further cultured for another 3 days. Then cells were removed with trypsin and the number of cells in each bottle was counted with a Coultar counter. Simultaneously, as the control, only ethanol was added and the NB1RGB cells were cultured and the number of cells were counted in the same manner. The number of cells in each bottle to which the sample had been added was determined as a relative value to the number (as 100) of cells in the control after cultured, and the results are shown in Table 8.

[6] = tested on: Malassezia furfur IFO 0656; assay: Anti-bacterial activity test, agar medium dilution method; assay type: cell-based; settings: Mf-1
Method: (§1) The aerobic microorganisms were examined in an agar medium dilution method and the anaerobic microorganisms were examined in a liquid medium dilution method under anaerobic culture conditions. Muller Hinton agar medium (DIFCO) was heated and dissolved and 10 ml of the medium was introduced into each test tube, sterilized and used. The sample was prepared by dissolving in ethanol and the resulting ethanol solution was diluted 2-fold serially with ethanol, and 100 micro-liters of sample solution were added to 10 ml of each dissolved agar medium, then stirred, introduced into a Petri dish of 9 cm in diameter, and solidified at room temperature. Each test microorganism in a well grown slant was inoculated via one loop of platinum into 10 ml Muller Hinton broth (DIFCO) and cultured with shaking at 27° C. for 24 hours and used as a microbial fluid. This fluid was diluted at 10^8 CFU (Colony forming unit)/ml, and 5 micro-liters of the diluted fluid were inoculated onto the agar and cultured at 37° C. overnight. Inoculation of the microorganism was conducted using microplanter MIT-P for 27 tubes test microorganisms (Sakuma Seisakusho K. K.).

[7] = tested on: Staphylococcus epidermidis JCM 2414; assay: as above; assay type: cell-based; settings: Se-1
Method: as §1

[8] = tested on: Corynebacterium minutissimum ATCC 23348; assay: as above; assay type: cell-based; settings: Cm-1
Method: as §1

[9] = tested on: Staphylococcus aureus IFO 12732; assay: as above; assay type: cell-based; settings: Sa-3
Method: as §1

[10] = tested on: Staphylococcus epidermidis var. H-6; assay: as above; assay type: cell-based; settings: Se-2
Method: as §1

[11] = tested on: Corynebacterium xerosis JCM 1324; assay: as above; assay type: cell-based; settings: Cx-2
Method: as §1

[12] = tested on: Bacillus subtilis PCI 219 IFO 3134; assay: as above; assay type: cell-based; settings: Bs-1
Method: as §1

[13] = 0.4 ppm, Table 2, combined use with arbutin
[14] = 0.4 ppm, Table 4, combined use with ellagic acid

inhibition at 100 ppm ([2]; 100 ppm, read-out: Degree of inhibition of tyrosinase in B16 melanoma cells): 35% | Degree of inhibition of mushroom tyrosinase ([4]; 100 ppm): 29%
SMILES: OC[C@H]1O[C@@H](Oc2ccc(O)cc2)[C@H](O)[C@@H](O)[C@@H]1O [Arbutin, reference compound]
Degree of cell proliferation ([1]; 6.3 ppm): 100% | inhibition at 6.3 ppm ([1]; Mus musculus, 72 h, 6.3 ppm, 3 days, read-out: Degree of melanin inhibition): 74% | Degree of cell proliferation ([3]; 0.8 ppm, Table 2, combined use with arbutin): 89% | inhibition at 0.8 ppm ([3]; Mus musculus, B16, 0.8 ppm, Table 2, combined use with arbutin, read-out: Degree of melanin inhibition): 22%

SMILES: CCOC(=O)CC(C)CCC1=C(C)CCC2C(C)(C)CCCC12C (centres unmarked) [Compound 3, labd-8-en-15-oic acid ethyl ester]
Degree of melanin inhibition ([1]; 6.3 ppm, 3 days): 74% | Degree of cell proliferation ([1]; 6.3 ppm): 115% | Degree of cell proliferation of fibroblasts ([5]; 8.0 ppm): 134%

Degree of inhibition of tyrosinase in B16 melanoma cells [2]: 0% | MIC [6]: 6.3 ppm | MIC [7]: 12.5 ppm | MIC [8]: 6.3 ppm | MIC [9]: 12.5 ppm | MIC [10]: 12.5 ppm | MIC [11]: 12.5 ppm | MIC [12]: 12.5 ppm | Degree of inhibition of mushroom tyrosinase ([4]; 25 ppm): 0%
SMILES: CC1=CCC2C(C)(C)CCCC2(C)C1CCC(C)CC(=O)O (centres unmarked) [Compound 4, labd-7-en-15-oic acid]
Degree of melanin inhibition ([1]; 6.3 ppm, 3 days): 87% | Degree of cell proliferation ([1]; 6.3 ppm): 109% | Degree of cell proliferation [3, 13]: 115% | Degree of melanin inhibition [3, 13]: 28%

SMILES: CCOC(=O)CC(C)CCC1C(C)=CCC2C(C)(C)CCCC12C (centres unmarked) [Compound 6, labd-7-en-15-oic acid ethyl ester]
Degree of melanin inhibition ([1]; 6.3 ppm, 3 days): 74% | Degree of cell proliferation ([1]; 6.3 ppm): 109% | Degree of cell proliferation of fibroblasts ([5]; 8.0 ppm): 134%

Degree of inhibition of tyrosinase in B16 melanoma cells [2]: 0% | MIC [6]: 6.3 ppm | MIC [7]: 6.3 ppm | MIC [8]: 12.5 ppm | MIC [9]: 12.5 ppm | MIC [10]: 6.3 ppm | MIC [11]: 12.5 ppm | MIC [12]: 12.5 ppm | Degree of inhibition of mushroom tyrosinase ([4]; 25 ppm): 0%
SMILES: C=C1CCC2C(C)(C)CCCC2(C)C1CCC(C)CC(=O)O (centres unmarked) [Compound 7, labd-8(17)-en-15-oic acid]
Degree of melanin inhibition ([1]; 6.3 ppm, 3 days): 79% | Degree of cell proliferation ([1]; 6.3 ppm): 111% | Degree of cell proliferation of fibroblasts ([5]; 8.0 ppm): 128% | Degree of cell proliferation [3, 14]: 111% | Degree of melanin inhibition [3, 14]: 30%

SMILES: C=C1CCC2C(C)(C)CCCC2(C)C1CCC(C)CC(=O)OCC (centres unmarked) [Compound 9, labd-8(17)-en-15-oic acid ethyl ester]
Degree of melanin inhibition ([1]; 6.3 ppm, 3 days): 61% | Degree of cell proliferation ([1]; 6.3 ppm): 103% | Degree of cell proliferation of fibroblasts ([5]; 8.0 ppm): 127%

SMILES: O=c1oc2c(O)c(O)cc3c(=O)oc4c(O)c(O)cc1c4c23 [Ellagic acid, reference compound]
Degree of cell proliferation ([1]; 3.1 ppm): 98% | inhibition at 3.1 ppm ([1]; Mus musculus, 72 h, 3.1 ppm, 3 days, read-out: Degree of melanin inhibition): 68% | Degree of cell proliferation ([3]; 1.6 ppm, Table 4, combined use with ellagic acid): 98% | inhibition at 1.6 ppm ([3]; Mus musculus, B16, 1.6 ppm, Table 4, combined use with ellagic acid, read-out: Degree of melanin inhibition): 17%

SMILES: O=C(O)CO [Glycolic acid, reference compound]
Degree of cell proliferation of fibroblasts ([5]; 4.0 ppm): 120%

From US6384074B1, “Cell growth activating composition containing compound having labdane structure” (Takasago International Corporation, priority 1998, dated 2002)
